Reference: ChEMBL document CHEMBL3734671, “Design and synthesis of an in vivo-efficacious PIM3 kinase inhibitor as a candidate anti-pancreatic cancer agent” (Bioorg Med Chem Lett, 2015)
Converted amounts (≈) assume the structure as drawn.

Key:
[1] = target: RAC-alpha serine/threonine-protein kinase (Homo sapiens) (UniProt P31749); assay: Inhibition of AKT1 (unknown origin) at 200 nM by electrophoretic mobility shift assay
[2] = target: Ephrin type-A receptor 2 (Homo sapiens) (UniProt P29317); assay: Inhibition of EPHA2 (unknown origin) at 200 nM by electrophoretic mobility shift assay
Chain of Ephrin type-A receptor 2 (Homo sapiens) (P29317 whole entry): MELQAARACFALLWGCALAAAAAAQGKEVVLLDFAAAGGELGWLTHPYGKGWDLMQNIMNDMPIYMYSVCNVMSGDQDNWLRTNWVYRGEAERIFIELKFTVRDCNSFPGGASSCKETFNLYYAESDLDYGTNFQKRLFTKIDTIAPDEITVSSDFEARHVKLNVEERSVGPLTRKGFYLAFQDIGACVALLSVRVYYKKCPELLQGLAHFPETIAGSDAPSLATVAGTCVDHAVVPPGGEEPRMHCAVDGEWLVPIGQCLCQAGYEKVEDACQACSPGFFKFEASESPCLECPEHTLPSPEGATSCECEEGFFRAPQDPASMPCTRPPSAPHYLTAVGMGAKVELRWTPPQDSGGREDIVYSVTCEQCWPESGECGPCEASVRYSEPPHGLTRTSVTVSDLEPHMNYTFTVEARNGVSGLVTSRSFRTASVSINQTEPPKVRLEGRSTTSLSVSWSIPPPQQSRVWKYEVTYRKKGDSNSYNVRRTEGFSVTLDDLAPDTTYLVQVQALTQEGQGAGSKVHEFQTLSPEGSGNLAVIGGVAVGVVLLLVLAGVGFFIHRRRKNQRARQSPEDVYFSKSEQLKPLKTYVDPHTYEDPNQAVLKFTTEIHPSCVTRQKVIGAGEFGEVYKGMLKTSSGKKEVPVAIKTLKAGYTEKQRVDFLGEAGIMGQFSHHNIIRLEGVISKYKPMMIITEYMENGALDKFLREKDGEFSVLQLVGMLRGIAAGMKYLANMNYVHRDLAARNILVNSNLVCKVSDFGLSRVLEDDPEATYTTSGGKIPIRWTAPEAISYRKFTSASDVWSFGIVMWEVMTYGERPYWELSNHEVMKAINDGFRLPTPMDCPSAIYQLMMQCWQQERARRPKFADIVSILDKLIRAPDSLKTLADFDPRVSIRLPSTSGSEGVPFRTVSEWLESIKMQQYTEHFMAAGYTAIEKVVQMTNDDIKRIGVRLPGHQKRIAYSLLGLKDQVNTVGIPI

[3] = target: Platelet-derived growth factor receptor alpha (Homo sapiens) (UniProt P16234); assay: Inhibition of PDGFRalpha (unknown origin) at 200 nM by electrophoretic mobility shift assay
[4] = target: 3-phosphoinositide-dependent protein kinase 1 (Homo sapiens) (UniProt O15530); assay: Inhibition of PDK1 (unknown origin) at 200 nM by electrophoretic mobility shift assay
Chain of 3-phosphoinositide-dependent protein kinase 1 (Homo sapiens) (O15530 whole entry): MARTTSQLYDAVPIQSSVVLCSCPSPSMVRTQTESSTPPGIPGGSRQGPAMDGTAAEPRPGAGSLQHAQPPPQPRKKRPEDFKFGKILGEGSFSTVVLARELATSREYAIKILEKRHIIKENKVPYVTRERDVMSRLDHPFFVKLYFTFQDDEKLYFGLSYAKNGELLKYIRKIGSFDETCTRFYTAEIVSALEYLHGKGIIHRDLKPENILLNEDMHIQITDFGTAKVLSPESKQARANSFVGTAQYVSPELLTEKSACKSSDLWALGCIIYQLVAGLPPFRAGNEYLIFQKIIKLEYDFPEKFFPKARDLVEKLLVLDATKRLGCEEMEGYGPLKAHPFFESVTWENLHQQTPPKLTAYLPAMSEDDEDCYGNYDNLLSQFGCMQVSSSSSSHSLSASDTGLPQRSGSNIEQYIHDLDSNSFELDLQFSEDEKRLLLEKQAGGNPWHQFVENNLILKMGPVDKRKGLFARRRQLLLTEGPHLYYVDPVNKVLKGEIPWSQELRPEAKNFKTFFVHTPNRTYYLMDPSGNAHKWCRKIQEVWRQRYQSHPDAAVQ

[5] = target: Hepatocyte growth factor receptor (Homo sapiens) (UniProt P08581); assay: Inhibition of MET (unknown origin) at 200 nM by electrophoretic mobility shift assay
Chain of Hepatocyte growth factor receptor (Homo sapiens) (P08581 whole entry): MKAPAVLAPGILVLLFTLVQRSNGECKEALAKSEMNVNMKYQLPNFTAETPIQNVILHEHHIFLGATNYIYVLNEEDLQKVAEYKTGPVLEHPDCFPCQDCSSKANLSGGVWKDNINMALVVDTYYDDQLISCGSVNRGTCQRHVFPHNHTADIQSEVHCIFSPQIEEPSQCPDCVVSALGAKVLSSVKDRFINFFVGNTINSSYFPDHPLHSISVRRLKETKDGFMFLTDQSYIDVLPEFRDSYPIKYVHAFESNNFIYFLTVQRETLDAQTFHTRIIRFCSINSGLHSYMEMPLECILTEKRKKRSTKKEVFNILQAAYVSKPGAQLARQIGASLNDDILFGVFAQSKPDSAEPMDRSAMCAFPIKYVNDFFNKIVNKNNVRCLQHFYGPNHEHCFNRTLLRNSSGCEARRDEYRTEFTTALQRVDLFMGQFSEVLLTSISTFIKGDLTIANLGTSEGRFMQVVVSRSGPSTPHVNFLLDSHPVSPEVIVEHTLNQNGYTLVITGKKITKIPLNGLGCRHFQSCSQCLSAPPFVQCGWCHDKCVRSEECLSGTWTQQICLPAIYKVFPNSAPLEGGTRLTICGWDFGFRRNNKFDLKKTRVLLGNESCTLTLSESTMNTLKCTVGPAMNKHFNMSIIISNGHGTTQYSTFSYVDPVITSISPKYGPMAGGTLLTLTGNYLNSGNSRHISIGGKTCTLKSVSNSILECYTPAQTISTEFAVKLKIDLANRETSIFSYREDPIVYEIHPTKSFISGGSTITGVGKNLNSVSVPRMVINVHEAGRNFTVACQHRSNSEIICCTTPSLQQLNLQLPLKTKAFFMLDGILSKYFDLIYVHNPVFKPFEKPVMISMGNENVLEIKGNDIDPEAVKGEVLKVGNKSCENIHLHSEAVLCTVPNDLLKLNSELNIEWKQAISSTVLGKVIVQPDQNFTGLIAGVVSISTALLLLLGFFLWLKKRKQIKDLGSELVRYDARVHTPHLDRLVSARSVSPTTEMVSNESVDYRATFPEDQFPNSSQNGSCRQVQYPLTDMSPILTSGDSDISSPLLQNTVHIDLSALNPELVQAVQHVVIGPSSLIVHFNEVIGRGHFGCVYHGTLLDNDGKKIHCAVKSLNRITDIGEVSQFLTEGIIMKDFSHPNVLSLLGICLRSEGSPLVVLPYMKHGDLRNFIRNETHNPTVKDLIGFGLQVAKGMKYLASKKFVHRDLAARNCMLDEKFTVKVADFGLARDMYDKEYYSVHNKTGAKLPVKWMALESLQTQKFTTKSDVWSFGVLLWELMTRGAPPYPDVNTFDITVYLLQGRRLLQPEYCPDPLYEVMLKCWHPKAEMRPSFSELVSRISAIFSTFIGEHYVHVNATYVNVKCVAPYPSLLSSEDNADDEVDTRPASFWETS

[6] = target: Tyrosine-protein kinase ABL1 (Homo sapiens) (UniProt P00519); assay: Inhibition of ABL (unknown origin) at 200 nM by electrophoretic mobility shift assay
[7] = target: Mitogen-activated protein kinase kinase kinase 9 (Homo sapiens) (UniProt P80192); assay: Inhibition of MLK1 (unknown origin) at 200 nM by ELISA
Chain of Mitogen-activated protein kinase kinase kinase 9 (Homo sapiens) (P80192 whole entry, looked up): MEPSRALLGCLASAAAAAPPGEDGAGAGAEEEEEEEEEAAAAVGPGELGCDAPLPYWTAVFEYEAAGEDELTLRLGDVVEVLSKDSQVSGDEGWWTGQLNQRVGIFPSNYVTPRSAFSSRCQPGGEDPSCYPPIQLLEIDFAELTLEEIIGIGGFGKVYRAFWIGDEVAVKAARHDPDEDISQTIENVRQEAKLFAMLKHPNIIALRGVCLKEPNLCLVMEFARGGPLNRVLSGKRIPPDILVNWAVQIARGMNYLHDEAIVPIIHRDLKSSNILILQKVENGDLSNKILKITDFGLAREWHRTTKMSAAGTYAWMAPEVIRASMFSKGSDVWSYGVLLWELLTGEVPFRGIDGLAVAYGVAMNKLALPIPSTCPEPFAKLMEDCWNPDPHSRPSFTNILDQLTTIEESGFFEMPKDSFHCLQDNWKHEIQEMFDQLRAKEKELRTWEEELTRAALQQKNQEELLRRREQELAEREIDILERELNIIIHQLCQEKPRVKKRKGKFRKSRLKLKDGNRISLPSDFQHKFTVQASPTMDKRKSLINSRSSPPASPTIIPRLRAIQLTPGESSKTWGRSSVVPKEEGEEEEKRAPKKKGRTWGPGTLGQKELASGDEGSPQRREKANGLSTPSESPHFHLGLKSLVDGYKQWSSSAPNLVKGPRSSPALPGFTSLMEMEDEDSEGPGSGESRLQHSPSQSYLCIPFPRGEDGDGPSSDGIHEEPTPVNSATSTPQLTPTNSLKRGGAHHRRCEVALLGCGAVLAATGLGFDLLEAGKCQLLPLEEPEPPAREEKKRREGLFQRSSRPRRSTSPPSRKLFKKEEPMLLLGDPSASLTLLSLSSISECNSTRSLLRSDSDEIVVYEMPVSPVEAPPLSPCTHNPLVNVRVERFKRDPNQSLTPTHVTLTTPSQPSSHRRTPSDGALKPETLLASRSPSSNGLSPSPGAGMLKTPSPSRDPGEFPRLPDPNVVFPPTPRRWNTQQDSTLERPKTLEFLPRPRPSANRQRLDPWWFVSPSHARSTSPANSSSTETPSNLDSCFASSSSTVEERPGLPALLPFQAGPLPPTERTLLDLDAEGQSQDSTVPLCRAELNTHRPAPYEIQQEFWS

[8] = target: Serine/threonine-protein kinase Nek2 (Homo sapiens) (UniProt P51955); assay: Inhibition of NEK2 (unknown origin) at 200 nM by electrophoretic mobility shift assay
[9] = target: Dual specificity mitogen-activated protein kinase kinase 1 (Homo sapiens) (UniProt Q02750); assay: Inhibition of MAP2K1 (unknown origin) at 200 nM by ELISA
[10] = target: Calcium/calmodulin-dependent protein kinase type IV (Homo sapiens) (UniProt Q16566); assay: Inhibition of CaMK4 (unknown origin) at 200 nM by electrophoretic mobility shift assay
[11] = target: Aurora kinase A (Homo sapiens) (UniProt O14965); assay: Inhibition of AurA (unknown origin) at 200 nM by electrophoretic mobility shift assay
[12] = target: Serine/threonine-protein kinase pim-3 (Homo sapiens, UniProt Q86V86); assay: Inhibition of PIM3 (unknown origin) at 200 nM by electrophoretic mobility shift assay
[13] = target: Tyrosine-protein kinase Lck (Homo sapiens) (UniProt P06239); assay: Inhibition of LCK (unknown origin) at 200 nM by electrophoretic mobility shift assay
[14] = target: Receptor-type tyrosine-protein kinase FLT3 (Homo sapiens) (UniProt P36888); assay: Inhibition of FLT3 (unknown origin) at 200 nM by electrophoretic mobility shift assay
CYP1A2 = target: T1, CYP1A2 (Homo sapiens, UniProt P05177); assay: Inhibition of CYP1A2 (unknown origin) at 10 uM; type: ADME
T1 sequence (P05177 whole entry): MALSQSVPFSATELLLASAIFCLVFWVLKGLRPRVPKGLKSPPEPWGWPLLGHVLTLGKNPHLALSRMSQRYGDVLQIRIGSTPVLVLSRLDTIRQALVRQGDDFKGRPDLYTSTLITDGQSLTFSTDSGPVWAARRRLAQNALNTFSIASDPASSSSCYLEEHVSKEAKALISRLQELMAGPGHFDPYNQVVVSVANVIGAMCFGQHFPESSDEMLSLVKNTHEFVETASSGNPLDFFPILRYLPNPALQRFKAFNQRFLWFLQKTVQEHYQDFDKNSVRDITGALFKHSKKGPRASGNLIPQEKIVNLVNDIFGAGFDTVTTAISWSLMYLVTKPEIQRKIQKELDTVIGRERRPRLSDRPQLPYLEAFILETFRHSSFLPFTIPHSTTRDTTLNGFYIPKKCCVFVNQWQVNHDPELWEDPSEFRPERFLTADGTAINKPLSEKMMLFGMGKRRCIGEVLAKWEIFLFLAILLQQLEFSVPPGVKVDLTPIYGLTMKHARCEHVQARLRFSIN

CYP2C19 = CYP2C19 (Homo sapiens, UniProt P33261); assay: Inhibition of CYP2C19 (unknown origin) at 10 uM; type: ADME
[15] = target: Dual specificity tyrosine-phosphorylation-regulated kinase 1B (Homo sapiens) (UniProt Q9Y463); assay: Inhibition of DYRK1B (unknown origin) at 200 nM by electrophoretic mobility shift assay
[16] = target: Mitogen-activated protein kinase 9 (Homo sapiens) (UniProt P45984); assay: Inhibition of JNK2 (unknown origin) at 200 nM by electrophoretic mobility shift assay
[17] = target: Mitogen-activated protein kinase 1 (Homo sapiens) (UniProt P28482); assay: Inhibition of Erk2 (unknown origin) at 200 nM by electrophoretic mobility shift assay
Chain of Mitogen-activated protein kinase 1 (Homo sapiens) (P28482 whole entry): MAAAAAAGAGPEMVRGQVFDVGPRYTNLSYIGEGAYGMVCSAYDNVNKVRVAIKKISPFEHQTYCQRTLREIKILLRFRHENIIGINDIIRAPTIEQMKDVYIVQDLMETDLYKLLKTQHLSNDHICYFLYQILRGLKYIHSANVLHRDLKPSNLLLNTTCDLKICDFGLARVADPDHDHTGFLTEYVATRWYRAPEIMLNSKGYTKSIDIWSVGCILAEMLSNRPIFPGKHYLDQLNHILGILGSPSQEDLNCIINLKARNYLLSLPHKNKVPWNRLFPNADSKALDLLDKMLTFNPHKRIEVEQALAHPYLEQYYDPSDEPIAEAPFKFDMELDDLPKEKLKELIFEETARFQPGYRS

[18] = target: Vascular endothelial growth factor receptor 2 (Homo sapiens) (UniProt P35968); assay: Inhibition of KDR (unknown origin) at 200 nM by electrophoretic mobility shift assay
[19] = target: Interleukin-1 receptor-associated kinase 4 (Homo sapiens) (UniProt Q9NWZ3); assay: Inhibition of IRAK4 (unknown origin) at 200 nM by electrophoretic mobility shift assay
[20] = target: Tyrosine-protein kinase JAK3 (Homo sapiens) (UniProt P52333); assay: Inhibition of JAK3 (unknown origin) at 200 nM by electrophoretic mobility shift assay
[21] = target: cAMP-dependent protein kinase catalytic subunit alpha (Homo sapiens) (UniProt P17612); assay: Inhibition of PKACalpha (unknown origin) at 200 nM by electrophoretic mobility shift assay
[22] = target: Serine/threonine-protein kinase PAK 4 (Homo sapiens) (UniProt O96013); assay: Inhibition of PAK4 (unknown origin) at 200 nM by electrophoretic mobility shift assay
[23] = target: Ephrin type-B receptor 4 (Homo sapiens) (UniProt P54760); assay: Inhibition of EPHB4 (unknown origin) at 200 nM by electrophoretic mobility shift assay
[24] = target: Tyrosine-protein kinase SYK (Homo sapiens) (UniProt P43405); assay: Inhibition of SYK (unknown origin) at 200 nM by electrophoretic mobility shift assay
CYP2C9 = CYP2C9 (Homo sapiens, UniProt P11712); assay: Inhibition of CYP2C9 (unknown origin) at 10 uM; type: ADME
Chain of CYP2C9 (P11712 whole entry): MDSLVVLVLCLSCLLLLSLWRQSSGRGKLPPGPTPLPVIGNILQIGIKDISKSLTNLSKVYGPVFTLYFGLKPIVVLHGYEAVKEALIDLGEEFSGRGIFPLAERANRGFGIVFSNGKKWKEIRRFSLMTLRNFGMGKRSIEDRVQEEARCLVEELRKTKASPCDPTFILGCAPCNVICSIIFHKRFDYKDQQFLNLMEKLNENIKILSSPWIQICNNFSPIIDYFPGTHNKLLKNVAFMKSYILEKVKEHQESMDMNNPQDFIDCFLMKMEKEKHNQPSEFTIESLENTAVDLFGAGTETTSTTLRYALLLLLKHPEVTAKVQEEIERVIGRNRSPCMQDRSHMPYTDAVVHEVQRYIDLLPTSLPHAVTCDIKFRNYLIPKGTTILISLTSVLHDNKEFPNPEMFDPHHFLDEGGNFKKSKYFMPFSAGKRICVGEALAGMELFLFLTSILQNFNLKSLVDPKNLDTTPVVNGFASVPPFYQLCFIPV

[25] = target: Tyrosine-protein kinase CSK (Homo sapiens) (UniProt P41240); assay: Inhibition of CSK (unknown origin) at 200 nM by electrophoretic mobility shift assay
[26] = target: Protein kinase C alpha type (Homo sapiens) (UniProt P17252); assay: Inhibition of PKCalpha (unknown origin) at 200 nM by electrophoretic mobility shift assay
[27] = target: Inhibitor of nuclear factor kappa-B kinase subunit beta (Homo sapiens) (UniProt O14920); assay: Inhibition of IKKbeta (unknown origin) at 200 nM by electrophoretic mobility shift assay
[28] = Aqueous solubility in PBS buffer solution at pH 7.4; type: physicochemical
CYP2D6 = CYP2D6 (Homo sapiens, UniProt P10635); assay: Inhibition of CYP2D6 (unknown origin) at 10 uM; type: ADME
[29] = target: Fibroblast growth factor receptor 1 (Homo sapiens) (UniProt P11362); assay: Inhibition of FGFR1 (unknown origin) at 200 nM by electrophoretic mobility shift assay

| inhibition [1] [%] | inhibition [2] [%] | inhibition [3] [%] | inhibition [4] [%] | inhibition [5] [%] | inhibition [6] [%] | inhibition [7] [%] | inhibition [8] [%] | inhibition [9] [%] | inhibition [10] [%] | inhibition [11] [%] | inhibition [12] [%] | inhibition [13] [%] | inhibition [14] [%] | inhibition at 10 µM (CYP1A2) [%] | inhibition at 10 µM (CYP2C19) [%] | inhibition [15] [%] | inhibition [16] [%] | inhibition [17] [%] | inhibition [18] [%] | Compound | also measured |
| --- | --- | --- | --- | --- | --- | --- | --- | --- | --- | --- | --- | --- | --- | --- | --- | --- | --- | --- | --- | --- | --- |
| 1.7 | -0.3 | 24.2 | 0.2 | 0.5 | 1 | -1.8 | -4 | -0.4 | -1.5 | -0.4 | 99 | 0.1 | 68 | 2 | 16 | 48 | -0.5 | 0.2 | 2 | COc1ccc2c(c1C(C)N1CCNCC1)O/C(=C\c1n[nH]c3ncccc13)C2=O (stereo unspecified) | inhibition [19]: -0.6%; inhibition [20]: 4.4%; inhibition [21]: 18.4%; inhibition [22]: -6.7%; inhibition [23]: 9.4%; inhibition [24]: 5.3%; inhibition at 10 µM (CYP2C9): < 1%; inhibition [25]: 0.9%; inhibition [26]: 83.6%; inhibition [27]: -2.8%; solubility [28]: 558 µM (≈ 226 µg/mL); inhibition at 10 µM (CYP2D6): 14%; inhibition [29]: 3.1% |
| -0.2 | -2.2 | 5.4 | -3.7 | -2.3 | -4.1 | -3.4 | -2.1 | -7.7 | -4.6 | 5.1 | 102 | -5.2 | 55.5 | 33 | < 1 | 24.8 | 1.8 | 4.9 | -5 | COc1ccc2c(c1CN1CCNCC1)O/C(=C\c1n[nH]c3ncccc13)C2=O | inhibition [19]: -3.8%; inhibition [20]: 1.5%; inhibition [21]: 4%; inhibition [22]: 13%; inhibition [23]: -3.1%; inhibition [24]: -7.5%; inhibition at 10 µM (CYP2C9): < 1%; inhibition [25]: -5.8%; inhibition [26]: 82.5%; inhibition [27]: 4.1%; solubility [28]: 182 µM (≈ 71.2 µg/mL); inhibition at 10 µM (CYP2D6): 23%; inhibition [29]: -4% |
